From ChEMBL document CHEMBL1152225, “Optimization of a series of potent and selective ketone histone deacetylase inhibitors” (Bioorg Med Chem Lett, 2008)
Active and inactive are the calls of the source. The rule behind the calls is not given here.

Tests used:
Histone deacetylase 1 = Histone deacetylase 1 (Homo sapiens, UniProt Q13547)
Description: Inhibition of human recombinant C-terminally flag tagged HDAC1

HeLa = assay: Antiproliferative activity against human HeLa cells after 72 hrs by celltiter-blue viability assay; format: functional, cell-based
[1] = Metabolic stability in rat liver microsomes assessed as intrinsic clearance; format: ADME, Microsome
Histone deacetylase 7 = biological target: T1, Histone deacetylase 7 (Homo sapiens, UniProt Q8WUI4); assay: Inhibition of HDAC7
T1 sequence (Q8WUI4 whole entry): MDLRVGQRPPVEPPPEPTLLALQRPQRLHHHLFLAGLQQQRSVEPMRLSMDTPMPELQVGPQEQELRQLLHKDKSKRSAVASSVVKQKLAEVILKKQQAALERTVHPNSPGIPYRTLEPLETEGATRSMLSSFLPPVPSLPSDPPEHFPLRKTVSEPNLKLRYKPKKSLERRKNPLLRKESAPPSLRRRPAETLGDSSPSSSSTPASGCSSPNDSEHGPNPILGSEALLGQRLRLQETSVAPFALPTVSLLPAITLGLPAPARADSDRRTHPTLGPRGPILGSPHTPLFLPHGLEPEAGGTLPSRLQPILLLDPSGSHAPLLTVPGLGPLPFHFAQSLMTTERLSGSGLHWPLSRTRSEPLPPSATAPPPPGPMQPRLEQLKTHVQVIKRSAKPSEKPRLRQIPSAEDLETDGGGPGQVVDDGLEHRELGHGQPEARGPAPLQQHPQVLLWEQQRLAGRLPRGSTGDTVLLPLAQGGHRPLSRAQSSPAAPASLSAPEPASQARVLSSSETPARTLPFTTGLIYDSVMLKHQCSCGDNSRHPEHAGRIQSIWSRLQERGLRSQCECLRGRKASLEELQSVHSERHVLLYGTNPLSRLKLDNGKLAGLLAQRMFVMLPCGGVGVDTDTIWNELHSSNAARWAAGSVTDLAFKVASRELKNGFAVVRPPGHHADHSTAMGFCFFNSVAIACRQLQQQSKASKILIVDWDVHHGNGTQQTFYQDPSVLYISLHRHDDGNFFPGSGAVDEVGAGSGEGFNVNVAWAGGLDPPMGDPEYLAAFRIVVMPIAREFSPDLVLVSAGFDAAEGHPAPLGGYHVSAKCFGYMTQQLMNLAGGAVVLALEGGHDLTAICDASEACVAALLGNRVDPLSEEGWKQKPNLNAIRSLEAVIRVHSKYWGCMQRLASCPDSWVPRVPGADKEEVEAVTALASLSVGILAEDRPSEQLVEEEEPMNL

Histone deacetylase 5 = Histone deacetylase 5 (Homo sapiens, UniProt Q9UQL6); assay: Inhibition of HDAC5
Histone deacetylase 5, sequence (Q9UQL6 whole entry): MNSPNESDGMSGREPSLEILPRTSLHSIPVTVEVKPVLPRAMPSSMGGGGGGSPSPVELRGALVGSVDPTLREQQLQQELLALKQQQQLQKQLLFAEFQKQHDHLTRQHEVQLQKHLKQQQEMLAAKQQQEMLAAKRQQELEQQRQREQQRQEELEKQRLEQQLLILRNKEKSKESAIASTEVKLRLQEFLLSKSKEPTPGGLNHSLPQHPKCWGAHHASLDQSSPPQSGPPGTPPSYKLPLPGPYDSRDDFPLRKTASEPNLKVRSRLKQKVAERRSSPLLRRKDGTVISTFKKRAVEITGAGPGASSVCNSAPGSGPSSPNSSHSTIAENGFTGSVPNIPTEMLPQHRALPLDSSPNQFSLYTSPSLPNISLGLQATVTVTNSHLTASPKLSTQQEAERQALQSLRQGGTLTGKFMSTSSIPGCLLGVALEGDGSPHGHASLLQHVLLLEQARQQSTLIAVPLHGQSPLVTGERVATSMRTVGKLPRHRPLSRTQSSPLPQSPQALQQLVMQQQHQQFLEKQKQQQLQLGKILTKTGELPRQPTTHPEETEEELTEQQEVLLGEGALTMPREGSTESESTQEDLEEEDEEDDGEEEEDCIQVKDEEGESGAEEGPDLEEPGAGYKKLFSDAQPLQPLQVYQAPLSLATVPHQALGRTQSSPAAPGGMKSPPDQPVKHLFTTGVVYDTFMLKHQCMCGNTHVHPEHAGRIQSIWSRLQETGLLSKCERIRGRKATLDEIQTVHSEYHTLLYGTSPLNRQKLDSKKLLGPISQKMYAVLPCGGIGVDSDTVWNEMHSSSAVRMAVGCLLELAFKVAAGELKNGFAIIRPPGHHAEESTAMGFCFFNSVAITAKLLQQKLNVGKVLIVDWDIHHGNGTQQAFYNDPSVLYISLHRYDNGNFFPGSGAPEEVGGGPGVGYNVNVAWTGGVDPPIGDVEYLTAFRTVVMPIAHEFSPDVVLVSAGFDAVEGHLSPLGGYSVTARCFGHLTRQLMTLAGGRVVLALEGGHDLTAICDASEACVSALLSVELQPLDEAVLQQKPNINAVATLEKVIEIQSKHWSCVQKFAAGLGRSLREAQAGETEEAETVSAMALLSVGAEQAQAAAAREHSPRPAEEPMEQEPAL

HCT-116 = assay: In vivo antitumor activity against human HCT116 cells; format: functional, organism-based
Histone deacetylase 8 = biological target: T2, Histone deacetylase 8 (Homo sapiens, UniProt Q9BY41); assay: Inhibition of HDAC8
T2 sequence (Q9BY41 whole entry): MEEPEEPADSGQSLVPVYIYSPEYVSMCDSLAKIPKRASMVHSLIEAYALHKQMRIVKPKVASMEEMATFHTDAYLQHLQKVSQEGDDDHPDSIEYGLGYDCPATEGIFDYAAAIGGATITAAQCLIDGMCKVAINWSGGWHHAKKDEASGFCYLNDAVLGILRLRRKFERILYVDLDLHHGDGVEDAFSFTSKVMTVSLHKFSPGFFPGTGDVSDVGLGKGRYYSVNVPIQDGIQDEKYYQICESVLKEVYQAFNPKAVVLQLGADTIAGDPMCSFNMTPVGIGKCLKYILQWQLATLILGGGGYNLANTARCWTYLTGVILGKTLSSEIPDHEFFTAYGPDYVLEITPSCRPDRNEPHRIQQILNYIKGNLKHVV

Histone deacetylase 4 = Histone deacetylase 4 (Homo sapiens, UniProt P56524); assay: Inhibition of HDAC4
Histone deacetylase 4, sequence (P56524 whole entry): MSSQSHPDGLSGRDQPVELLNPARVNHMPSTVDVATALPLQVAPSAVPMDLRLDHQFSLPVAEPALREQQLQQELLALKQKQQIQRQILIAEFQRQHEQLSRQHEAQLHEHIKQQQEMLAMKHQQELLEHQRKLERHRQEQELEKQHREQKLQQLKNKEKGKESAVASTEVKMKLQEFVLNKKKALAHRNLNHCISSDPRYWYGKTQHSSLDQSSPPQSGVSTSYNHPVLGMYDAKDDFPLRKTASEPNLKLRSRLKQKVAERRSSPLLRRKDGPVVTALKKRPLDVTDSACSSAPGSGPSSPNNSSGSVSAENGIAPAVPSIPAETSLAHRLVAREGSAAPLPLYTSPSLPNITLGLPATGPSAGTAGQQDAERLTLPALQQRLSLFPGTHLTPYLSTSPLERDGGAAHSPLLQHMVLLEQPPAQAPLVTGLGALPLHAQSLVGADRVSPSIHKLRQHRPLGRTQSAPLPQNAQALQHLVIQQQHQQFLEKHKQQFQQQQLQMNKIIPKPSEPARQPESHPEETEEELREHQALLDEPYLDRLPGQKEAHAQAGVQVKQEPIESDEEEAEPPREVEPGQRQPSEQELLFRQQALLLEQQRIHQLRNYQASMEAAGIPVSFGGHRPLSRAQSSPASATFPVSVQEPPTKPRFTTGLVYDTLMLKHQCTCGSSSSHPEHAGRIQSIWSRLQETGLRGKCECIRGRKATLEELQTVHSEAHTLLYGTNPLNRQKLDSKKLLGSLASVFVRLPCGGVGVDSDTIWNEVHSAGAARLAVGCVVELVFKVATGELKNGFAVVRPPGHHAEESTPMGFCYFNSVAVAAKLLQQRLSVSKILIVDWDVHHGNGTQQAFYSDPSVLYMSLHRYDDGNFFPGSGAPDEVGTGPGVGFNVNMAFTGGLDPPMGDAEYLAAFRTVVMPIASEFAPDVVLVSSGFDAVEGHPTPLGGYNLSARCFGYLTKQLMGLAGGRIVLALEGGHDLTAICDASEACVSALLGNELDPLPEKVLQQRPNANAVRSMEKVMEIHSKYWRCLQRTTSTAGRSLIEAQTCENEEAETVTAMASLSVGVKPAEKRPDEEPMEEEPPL

[2] = biological target: T3, Protein deacetylase HDAC6 (Homo sapiens, UniProt Q9UBN7)
T3 sequence (Q9UBN7 whole entry): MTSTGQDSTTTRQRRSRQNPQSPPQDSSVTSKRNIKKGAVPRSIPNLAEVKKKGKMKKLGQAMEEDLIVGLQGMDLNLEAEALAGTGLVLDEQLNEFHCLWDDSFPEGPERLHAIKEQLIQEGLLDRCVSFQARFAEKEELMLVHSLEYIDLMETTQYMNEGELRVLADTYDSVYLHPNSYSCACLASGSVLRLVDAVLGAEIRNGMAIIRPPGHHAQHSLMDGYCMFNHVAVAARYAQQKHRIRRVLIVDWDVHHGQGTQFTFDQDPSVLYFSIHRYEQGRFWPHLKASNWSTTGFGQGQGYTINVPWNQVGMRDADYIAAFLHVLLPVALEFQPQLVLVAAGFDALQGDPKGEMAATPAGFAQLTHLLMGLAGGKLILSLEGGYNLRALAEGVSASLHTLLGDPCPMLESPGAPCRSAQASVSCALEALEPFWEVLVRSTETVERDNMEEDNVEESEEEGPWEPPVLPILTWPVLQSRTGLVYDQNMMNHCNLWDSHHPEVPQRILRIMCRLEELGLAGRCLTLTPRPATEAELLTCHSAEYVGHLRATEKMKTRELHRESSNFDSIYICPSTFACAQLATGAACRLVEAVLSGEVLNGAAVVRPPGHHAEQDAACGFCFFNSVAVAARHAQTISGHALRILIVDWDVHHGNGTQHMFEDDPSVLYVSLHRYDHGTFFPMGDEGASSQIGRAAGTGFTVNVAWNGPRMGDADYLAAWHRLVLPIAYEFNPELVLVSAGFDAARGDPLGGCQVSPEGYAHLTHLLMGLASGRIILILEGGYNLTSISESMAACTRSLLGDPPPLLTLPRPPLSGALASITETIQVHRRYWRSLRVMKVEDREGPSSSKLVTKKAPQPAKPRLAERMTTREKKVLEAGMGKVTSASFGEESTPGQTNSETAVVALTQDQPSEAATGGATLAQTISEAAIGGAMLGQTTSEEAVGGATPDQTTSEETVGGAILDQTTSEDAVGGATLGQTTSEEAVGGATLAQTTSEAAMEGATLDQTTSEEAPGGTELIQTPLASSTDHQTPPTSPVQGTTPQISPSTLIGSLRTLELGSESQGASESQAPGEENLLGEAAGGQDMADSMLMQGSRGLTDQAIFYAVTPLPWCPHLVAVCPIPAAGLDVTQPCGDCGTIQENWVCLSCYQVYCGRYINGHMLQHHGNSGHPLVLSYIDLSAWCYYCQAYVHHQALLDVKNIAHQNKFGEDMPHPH

Histone deacetylase 3 = Histone deacetylase 3 (Homo sapiens, UniProt O15379)
Histone deacetylase 3, sequence (O15379 whole entry): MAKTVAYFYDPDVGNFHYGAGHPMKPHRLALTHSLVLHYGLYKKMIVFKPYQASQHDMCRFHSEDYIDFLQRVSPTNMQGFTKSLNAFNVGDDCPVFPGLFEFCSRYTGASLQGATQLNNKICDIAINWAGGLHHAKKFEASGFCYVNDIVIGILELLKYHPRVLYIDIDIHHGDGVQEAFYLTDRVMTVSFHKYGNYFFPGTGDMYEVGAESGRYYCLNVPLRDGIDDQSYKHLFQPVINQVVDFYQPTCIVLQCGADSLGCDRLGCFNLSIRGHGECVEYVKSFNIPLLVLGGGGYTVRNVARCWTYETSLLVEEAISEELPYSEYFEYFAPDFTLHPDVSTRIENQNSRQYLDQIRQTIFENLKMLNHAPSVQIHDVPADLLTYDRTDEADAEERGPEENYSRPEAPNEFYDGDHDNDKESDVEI

Histone deacetylase 1, sequence (Q13547 whole entry): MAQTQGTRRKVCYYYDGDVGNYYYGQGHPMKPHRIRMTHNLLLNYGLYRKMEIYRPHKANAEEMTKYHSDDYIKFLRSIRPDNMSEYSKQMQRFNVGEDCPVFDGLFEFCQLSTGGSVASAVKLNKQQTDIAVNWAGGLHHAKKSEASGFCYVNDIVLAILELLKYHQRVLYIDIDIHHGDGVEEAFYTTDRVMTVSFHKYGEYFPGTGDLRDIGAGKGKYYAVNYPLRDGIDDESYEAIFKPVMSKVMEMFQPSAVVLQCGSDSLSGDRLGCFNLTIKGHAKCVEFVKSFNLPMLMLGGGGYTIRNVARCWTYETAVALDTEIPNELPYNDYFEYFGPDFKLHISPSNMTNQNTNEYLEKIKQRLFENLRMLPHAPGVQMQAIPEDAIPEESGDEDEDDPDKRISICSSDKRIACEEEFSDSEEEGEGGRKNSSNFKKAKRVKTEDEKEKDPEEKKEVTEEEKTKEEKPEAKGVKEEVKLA

Row | IC50 (Histone deacetylase 1) [µM] | IC50 (HeLa) [µM] | microsomal CLint [1] [µL/min/mg] | Structure (SMILES) | other results
1 | 0.1 | 0.55 | > 300 | CC(=O)CCCCC[C@H](NC(=O)C1CCN(C)CC1)c1ncc(-c2ccc(Br)cc2)[nH]1 | 
2 | 0.075 | 0.68 | 246 | CC(=O)CCCCC[C@H](NC(=O)C1CCN(C)CC1)c1ncc(-c2ccc(Cl)cc2)[nH]1 | 
3 | 0.5 | 2 | 64 | CC(=O)CCCCC[C@H](NC(=O)CN1CCN(C)CC1)c1ncc(-c2ccccc2)[nH]1 | 
4 | 0.28 | 1.1 | 501 | CC(=O)CCCCC[C@H](NC(=O)C1CCN(C)C1)c1ncc(-c2ccccc2)[nH]1 (stereo partly drawn) | 
5 | 0.18 | 1.3 |  | CC(=O)CCCCC[C@H](NC(=O)C1CCN(C)CC1)c1ncc(-c2ccccc2Cl)[nH]1 | 
6 | 0.09 | 0.4 |  | CC(=O)CCCCC[C@H](NC(=O)C1CCN(C)CC1)c1ncc(-c2cccc(Cl)c2)[nH]1 | 
7 | 0.19 | 1.3 | > 300 | CC(=O)CCCCC[C@H](NC(=O)CCN1CCCCC1)c1ncc(-c2ccccc2)[nH]1 | 
8 | 0.71 | 2.7 | > 300 | CC(=O)CCCCC[C@H](NC(=O)C1CCCCN1C)c1ncc(-c2ccccc2)[nH]1 (stereo partly drawn) | 
9 | 0.14 | 0.53 |  | CC(=O)CCCCC[C@H](NC(=O)c1cncs1)c1ncc(-c2ccccc2)[nH]1 | 
10 | 0.22 | 1.7 | 143 | CC(=O)CCCCC[C@H](NC(=O)CCN1CC2CCC1C2)c1ncc(-c2ccccc2)[nH]1 (stereo partly drawn) | 
11 | 0.22 | 0.4 | 154 | CC(=O)CCCCC[C@H](NC(=O)C1CCCN(C)C1)c1ncc(-c2ccccc2)[nH]1 (stereo partly drawn) | 
12 | 0.05 | 0.39 | 170 | CC(=O)CCCCC[C@H](NC(=O)C1CCN(C)CC1)c1ncc(-c2ccc(-c3ccccc3)cc2)[nH]1 | 
13 | > 1.5 | 14.7 |  | CC(=O)CCCCC[C@H](NC(=O)C1CCN(C)CC1)c1nc(C)c(-c2ccccc2)[nH]1 | 
14 | 0.25 | 0.98 | 68 | CC(=O)CCCCC[C@H](NC(=O)C1CCN(C)CC1)c1ncc(-c2ccccc2)[nH]1 | 
15 | 0.38 | 2.2 | 99 | CC(=O)CCCCC[C@H](NC(=O)C1CCN(C)CC1)c1ncc(-c2ccc(F)cc2)[nH]1 | 

The remaining lines, values behind:

Row | Structure (SMILES) | IC50 (Histone deacetylase 1) [µM] | IC50 (HeLa) [µM] | microsomal CLint [1] [µL/min/mg] | other results
16 | CC(=O)CCCCC[C@H](NS(=O)(=O)c1ccc(C#N)cc1)c1ncc(-c2ccccc2)[nH]1 | 0.18 | 1.2 |  | 
17 | COc1ccc(S(=O)(=O)N[C@@H](CCCCCC(C)=O)c2ncc(-c3ccccc3)[nH]2)cc1 | 0.25 | 1.4 |  | 
18 | COc1ccc2[nH]c(C)c(CC(=O)N[C@@H](CCCCCC(C)=O)c3ncc(-c4ccccc4)[nH]3)c2c1 |  |  | > 300 | IC50 (Histone deacetylase 7): > 1 µM; IC50 (Histone deacetylase 5): > 1 µM; Activity (HCT-116): Active; IC50 (Histone deacetylase 8): > 1 µM; IC50 (Histone deacetylase 4): > 1 µM
19 | CC(=O)CCCCC[C@H](NC(=O)c1ccc2c(c1)OCCO2)c1ncc(-c2ccccc2)[nH]1 | 0.3 | 1.1 |  | 
20 | CC(=O)CCCCC[C@H](NC(=O)c1cccc(C#N)c1)c1ncc(-c2ccccc2)[nH]1 | 0.16 | 1.1 |  | 
21 | CCCCC(=O)CCCCC[C@H](NC(=O)C1CCN(C)CC1)c1ncc(-c2ccc3ccccc3c2)[nH]1 | 0.074 | 0.69 |  | IC50 [2]: 3.5 µM; IC50 (Histone deacetylase 3): 0.18 µM
22 | CC(=O)CCCCC[C@H](NC(=O)C1CCN(C)CC1)c1ncc(-c2ccsc2)[nH]1 | 0.24 | 3.2 |  | 
23 | CC(=O)CCCCC[C@H](NC(=O)C1CCN(C)CC1)c1ncc(-c2ccc(C#N)cc2)[nH]1 | 0.12 | 1.5 | 330 | 
24 | CC(=O)CCCCC[C@H](NS(=O)(=O)c1ccc([N+](=O)[O-])c(F)c1)c1ncc(-c2ccccc2)[nH]1 | 0.13 | 1 |  | 
25 | CC(=O)CCCCC[C@H](NC(=O)C1CCN(C)CC1)c1ncc(-c2csc3ccccc23)[nH]1 | 0.18 | 1.3 |  | 
26 | CCC(=O)CCCCC[C@H](NC(=O)C1CCN(C)CC1)c1ncc(-c2ccc3ccccc3c2)[nH]1 | 0.012 | 0.21 |  | IC50 [2]: 0.8 µM; IC50 (Histone deacetylase 3): 0.012 µM
27 | CC(=O)CCCCC[C@H](NS(=O)(=O)c1cccc([N+](=O)[O-])c1)c1ncc(-c2ccccc2)[nH]1 | 0.055 | 1.3 |  | 
28 | CC(=O)CCCCC[C@H](NS(=O)(=O)c1cccc(C#N)c1)c1ncc(-c2ccccc2)[nH]1 | 0.11 | 1.1 |  | 
29 | CC(=O)CCCCC[C@H](NC(=O)C1CCN(C)CC1)c1ncc(C(C)(C)C)[nH]1 | > 5 | > 25 |  | 
30 | CC(=O)CCCCC[C@H](NC(=O)C1CCN(C)CC1)c1ncc(-c2cccc(C#N)c2)[nH]1 | 0.48 | 1.54 |  | 
31 | CCCC(=O)CCCCC[C@H](NC(=O)C1CCN(C)CC1)c1ncc(-c2ccc3ccccc3c2)[nH]1 | 0.016 | 0.2 |  | IC50 [2]: 1.4 µM; IC50 (Histone deacetylase 3): 0.027 µM
32 | CC(=O)CCCCC[C@H](NC(=O)C1CCN(C)CC1)c1ncc(-c2ccccn2)[nH]1 | > 0.5 | 9.7 |  | 
33 | CC(=O)CCCCC[C@H](NS(=O)(=O)c1ccccc1C#N)c1ncc(-c2ccccc2)[nH]1 | 0.27 | 7.3 |  | 
